Laboratory results from ChEMBL document CHEMBL1135268, “Design, synthesis and in vitro evaluation of potent, novel, small molecule inhibitors of plasminogen activator inhibitor-1” (Bioorg Med Chem Lett, 2002).

Key:
[1] = molecular target: T1, Plasminogen activator inhibitor 1 (Homo sapiens, UniProt P05121); assay: Inhibitory activity against human plasminogen activator inhibitor-1 (PAI-1) evaluated by chromogenic assay.
[2] = molecular target: T1, Plasminogen activator inhibitor 1; assay: Inhibitory activity against human plasminogen activator inhibitor-1 (PAI-1) evaluated by complex assay.

T1 sequence (P05121 whole entry): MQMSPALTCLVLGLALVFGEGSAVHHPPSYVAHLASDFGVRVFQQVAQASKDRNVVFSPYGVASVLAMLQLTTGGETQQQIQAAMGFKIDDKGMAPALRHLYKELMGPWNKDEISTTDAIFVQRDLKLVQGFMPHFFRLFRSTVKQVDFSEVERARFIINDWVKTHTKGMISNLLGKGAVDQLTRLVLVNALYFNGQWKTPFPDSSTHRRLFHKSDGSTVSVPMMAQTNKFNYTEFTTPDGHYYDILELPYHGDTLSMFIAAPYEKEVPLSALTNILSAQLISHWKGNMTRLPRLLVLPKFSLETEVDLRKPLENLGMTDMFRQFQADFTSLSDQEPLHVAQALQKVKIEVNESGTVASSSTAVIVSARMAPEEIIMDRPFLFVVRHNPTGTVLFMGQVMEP

Structure (SMILES)	IC50 [1] [nM]	IC50 [2] [nM]
O=C(Nc1ccc(OCCCCCCCn2cnnn2)cc1)c1c(O)c2cc(-c3cc4ccccc4s3)ccc2[nH]c1=O	1010	290
O=C(O)CCCCCCCOc1ccc(NC(=O)c2c(O)c3cc(-c4cc5ccccc5s4)ccc3[nH]c2=O)cc1	500	
O=C(O)CCCCCCCOc1ccc(/C=c2/[nH]c(=O)/c(=C/c3ccc(NC(=O)c4cccs4)cc3)[nH]c2=O)cc1	200	510
O=C(O)CCCCCCCOc1ccc(NC(=O)c2c(O)c3cccc(-c4cccc5ccccc45)c3[nH]c2=O)cc1	> 50000	
O=C(O)CCCCCCCOc1ccc(NC(=O)C2=C(O)CN(Cc3ccccc3)C2=O)cc1	> 50000	
O=C(O)CCCCCCCOc1ccc(NC(=O)C2=C(O)C(c3ccccc3)NC2=O)cc1 (stereo not drawn)	49000	
O=C(O)CCCCCCCOc1ccc(NC(=O)C2=C(O)C(Cc3ccc(O)cc3)NC2=O)cc1 (stereo not drawn)	> 50000	
COc1ccc(-c2cccc3c(O)c(C(=O)Nc4ccc(OCCCCCCCC(=O)O)cc4)c(=O)[nH]c23)cc1	30000	
Nc1ccc2nc(O)c(C(=O)Nc3ccc(OCCCCCCCC(=O)O)cc3)c(O)c2c1	> 20000	
O=C(O)CCCCCCCOc1ccc(NC(=O)c2c(O)nc3ccc(I)cc3c2O)cc1	2200	
Cc1ccc(N2CC(O)=C(C(=O)Nc3ccc(OCCCCCCCn4cnnn4)cc3)C2=O)cc1	890	830
CC1C(O)=C(C(=O)Nc2ccc(OCCCCCCCC(=O)O)cc2)C(=O)N1c1ccccc1 (stereo not drawn)	> 50000	
O=C(O)CCCCCCCOc1ccc(NC(=O)c2c(O)nc3ccc(Cl)cc3c2O)cc1	1950	
COc1ccccc1N1CC(O)=C(C(=O)Nc2ccc(OCCCCCCCC(=O)O)cc2)C1=O	> 50000	
O=C(O)CCCCCCCOc1ccc(NC(=O)c2c(O)c3ccc(-c4cc5ccccc5s4)cc3[nH]c2=O)cc1	300	
O=C(O)CCCCCCCOc1ccc(NC(=O)c2c(O)c3ccccc3[nH]c2=O)cc1	1850	
O=C(O)CCCCCCCOc1ccc(NC(=O)C2=C(O)CN(c3ccc(Cl)cc3)C2=O)cc1	5000	
N#Cc1ccc2c(O)c(C(=O)Nc3ccc(OCCCCCCCC(=O)O)cc3)c(=O)[nH]c2c1	900	
O=C(O)CCCCCCCOc1ccc(NC(=O)C2=C(O)CN(c3ccc(Cl)c(Cl)c3)C2=O)cc1	13000	
O=C(O)CCCCCCCOc1ccc(NC(=O)c2c(O)nc3ccc(-c4csc5ccccc45)cc3c2O)cc1	510	940
O=C(O)CCCCCCCOc1ccc(NC(=O)c2c(O)c3cc(-c4ccc5ccccc5c4)ccc3[nH]c2=O)cc1	670	
COC(=O)CCCCCCCOc1ccc(NC(=O)C2=C(O)CN(c3ccc(Cl)cc3)C2=O)cc1	> 50000	
COc1ccc(N2CC(O)=C(C(=O)Nc3ccc(OCCCCCCCC(=O)O)cc3)C2=O)cc1	3660	
O=C(O)CCCCCCCOc1ccc(NC(=O)c2c(O)nc3ccc([N+](=O)[O-])cc3c2O)cc1	3600	

Structure (SMILES)	IC50 [1] [nM]	IC50 [2] [nM]
O=C(O)CCCCCCCOc1ccc(NC(=O)C2=C(O)CN(c3ccc4ccccc4c3)C2=O)cc1	4000	
Cc1ccc(N2CC(O)=C(C(=O)Nc3ccc(OCCCCCCCC(=O)O)cc3)C2=O)cc1	1950	
O=C(O)CCCCCCCOc1ccc(NC(=O)c2c(O)c3c(Cl)cccc3[nH]c2=O)cc1	3000	
O=C(O)CCCCCCCOc1ccc(NC(=O)c2c(O)c3cc(-c4ccc(Cl)cc4)ccc3[nH]c2=O)cc1	2000	
O=C(O)CCCCCCCOc1ccc(NC(=O)c2c(O)c3c(I)cccc3[nH]c2=O)cc1	7000	
O=C(O)CCCCCCCOc1ccc(NC(=O)C2=C(O)CN(c3ccccc3)C2=O)cc1	21000	
Nc1ccc2c(O)c(C(=O)Nc3ccc(OCCCCCCCC(=O)O)cc3)c(O)nc2c1	> 30000	
O=C(O)CCCCCCCOc1ccc(NC(=O)c2c(O)c3c([N+](=O)[O-])cccc3[nH]c2=O)cc1	7900	
CCCCCc1ccc2[nH]c(=O)c(C(=O)Nc3ccc(OCCCCCCCC(=O)O)cc3)c(O)c2c1	1800	
O=C(O)CCCCCCCOc1ccc(NC(=O)c2c(O)c3ccc(C(F)(F)F)cc3[nH]c2=O)cc1	1030	
O=C(O)CCCCCCCOc1ccc(NC(=O)C2=C(O)CN(c3ccc(Br)cc3)C2=O)cc1	1990	
O=C(O)CCCCCCCOc1ccc(NC(=O)c2c(O)c3cc(F)ccc3[nH]c2=O)cc1	4900	
Nc1cccc2nc(O)c(C(=O)Nc3ccc(OCCCCCCCC(=O)O)cc3)c(O)c12	4250	
COc1cc2[nH]c(=O)c(C(=O)Nc3ccc(OCCCCCCCC(=O)O)cc3)c(O)c2cc1OC	1650	
COC(=O)c1cccc(N2CC(O)=C(C(=O)Nc3ccc(OCCCCCCCC(=O)O)cc3)C2=O)c1	17900	
O=C(Nc1ccc(OCCCCCCCn2cnnn2)cc1)C1=C(O)CN(c2ccc(Cl)cc2)C1=O	690	300
O=C(O)CCCCCCCOc1ccc(NC(=O)C2=C(O)CN(c3ccccc3Cl)C2=O)cc1	> 50000	
CC(=O)Nc1ccc(N2CC(O)=C(C(=O)Nc3ccc(OCCCCCCCC(=O)O)cc3)C2=O)cc1	> 50000	
CC(C)c1ccc(N2CC(O)=C(C(=O)Nc3ccc(OCCCCCCCC(=O)O)cc3)C2=O)cc1	2350	
O=C(O)CCCCCCCOc1ccc(NC(=O)C2=C(O)CN(c3cccc4ccccc34)C2=O)cc1	> 50000	
O=C(O)CCCCCCCOc1ccc(NC(=O)c2c(O)c3ccc(-c4ccc5ccccc5c4)cc3[nH]c2=O)cc1	600	
O=C(O)CCCCCCCOc1ccc(NC(=O)C2=C(O)CN(c3ccc(N4CCOCC4)cc3)C2=O)cc1	> 50000	
O=C(O)CCCCCCCOc1ccc(NC(=O)C2=C(O)CN(c3ccc([N+](=O)[O-])cc3)C2=O)cc1	4250	
O=C(O)CCCCCCCOc1ccc(NC(=O)c2c(O)nc3cc(F)c(F)cc3c2O)cc1	2350	
